In ChEMBL document CHEMBL4033736, “A new type of pharmacological chaperone for GM1-gangliosidosis related human lysosomal β-galactosidase: N-Substituted 5-amino-1-hydroxymethyl-cyclopentanetriols” (Bioorg Med Chem Lett, 2017):
Residue numbers refer to the chain shown, from its start. The source made the active and inactive calls. The calls are words filed in the database; no cut-off is given here.

Key:
[1] = Competitive inhibition of Agrobacterium sp. beta-glucosidase using 4-nitrophenyl beta-D-galactopyranoside as substrate pre-incubated for up to 5 mins before substrate addition
[2] = Competitive inhibition of Escherichia coli lacZ beta-galactosidase using 4-nitrophenyl beta-D-galactopyranoside as substrate pre-incubated for up to 5 mins before substrate addition
Beta-galactosidase [3] = target: T1, Beta-galactosidase (Bos taurus, UniProt Q58D55); test: Competitive inhibition of Bovine liver beta-galactosidase using 4-nitrophenyl beta-D-galactopyranoside as substrate pre-incubated for up to 5 mins before substrate addition
T1 sequence (Q58D55 whole entry): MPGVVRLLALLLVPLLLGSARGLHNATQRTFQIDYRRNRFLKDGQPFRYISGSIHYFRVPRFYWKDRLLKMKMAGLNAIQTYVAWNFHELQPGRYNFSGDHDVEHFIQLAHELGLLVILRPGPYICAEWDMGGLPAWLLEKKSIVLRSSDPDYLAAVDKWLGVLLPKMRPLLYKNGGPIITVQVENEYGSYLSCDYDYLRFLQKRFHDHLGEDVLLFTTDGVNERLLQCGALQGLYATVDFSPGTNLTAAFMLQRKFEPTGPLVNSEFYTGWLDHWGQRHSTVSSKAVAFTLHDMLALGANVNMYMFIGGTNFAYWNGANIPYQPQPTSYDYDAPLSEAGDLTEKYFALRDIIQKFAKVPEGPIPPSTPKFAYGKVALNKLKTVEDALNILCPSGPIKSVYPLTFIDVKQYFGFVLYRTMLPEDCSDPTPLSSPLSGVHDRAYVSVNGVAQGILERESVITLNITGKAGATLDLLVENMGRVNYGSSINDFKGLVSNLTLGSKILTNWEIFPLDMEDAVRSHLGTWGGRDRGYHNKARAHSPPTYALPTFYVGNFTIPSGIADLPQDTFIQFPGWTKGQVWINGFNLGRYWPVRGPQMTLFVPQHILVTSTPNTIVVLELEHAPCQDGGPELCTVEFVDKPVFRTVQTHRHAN

[4] = Competitive inhibition of Fabrazyme (human recombinant alpha-galactosidase) using 4-nitrophenyl alpha-galactopyranoside as substrate pre-incubated for up to 5 mins before substrate addition
[5] = target: T2, Lysosomal acid glucosylceramidase (Homo sapiens, UniProt P04062); test: Competitive inhibition of recombinant beta-glucocerebrosidase (unknown origin) using 4-nitrophenyl beta-D-[…] as substrate pre-incubated for up to 5 mins before substrate addition
T2 sequence (P04062 whole entry): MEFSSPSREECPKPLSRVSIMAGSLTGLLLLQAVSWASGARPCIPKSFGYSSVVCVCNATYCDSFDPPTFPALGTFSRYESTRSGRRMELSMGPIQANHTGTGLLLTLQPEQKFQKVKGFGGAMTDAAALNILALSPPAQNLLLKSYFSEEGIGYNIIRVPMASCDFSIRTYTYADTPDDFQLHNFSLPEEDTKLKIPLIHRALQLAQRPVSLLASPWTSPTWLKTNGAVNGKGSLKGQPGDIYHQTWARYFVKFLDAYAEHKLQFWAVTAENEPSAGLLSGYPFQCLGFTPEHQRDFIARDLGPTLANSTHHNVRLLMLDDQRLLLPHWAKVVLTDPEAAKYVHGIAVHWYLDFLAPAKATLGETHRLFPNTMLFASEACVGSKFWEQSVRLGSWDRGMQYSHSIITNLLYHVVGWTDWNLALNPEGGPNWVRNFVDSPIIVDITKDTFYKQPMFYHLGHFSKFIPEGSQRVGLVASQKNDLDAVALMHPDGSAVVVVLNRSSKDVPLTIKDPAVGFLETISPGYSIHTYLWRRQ

[6] = Competitive inhibition of Saccharomyces cerevisiae alpha-glucosidase using 4-nitrophenyl alpha-[…] as substrate pre-incubated for up to 5 mins before substrate addition
Beta-galactosidase [7] = target: T3, Beta-galactosidase (Homo sapiens, UniProt P16278); test: Competitive inhibition of human fibroblast lysosomal beta-galactosidase using 4-methylumbelliferyl-beta-D-galactopyranoside as substrate pre-incubated for up to 5 mins before substrate addition and measured after 30 mins
T3 sequence (P16278 whole entry): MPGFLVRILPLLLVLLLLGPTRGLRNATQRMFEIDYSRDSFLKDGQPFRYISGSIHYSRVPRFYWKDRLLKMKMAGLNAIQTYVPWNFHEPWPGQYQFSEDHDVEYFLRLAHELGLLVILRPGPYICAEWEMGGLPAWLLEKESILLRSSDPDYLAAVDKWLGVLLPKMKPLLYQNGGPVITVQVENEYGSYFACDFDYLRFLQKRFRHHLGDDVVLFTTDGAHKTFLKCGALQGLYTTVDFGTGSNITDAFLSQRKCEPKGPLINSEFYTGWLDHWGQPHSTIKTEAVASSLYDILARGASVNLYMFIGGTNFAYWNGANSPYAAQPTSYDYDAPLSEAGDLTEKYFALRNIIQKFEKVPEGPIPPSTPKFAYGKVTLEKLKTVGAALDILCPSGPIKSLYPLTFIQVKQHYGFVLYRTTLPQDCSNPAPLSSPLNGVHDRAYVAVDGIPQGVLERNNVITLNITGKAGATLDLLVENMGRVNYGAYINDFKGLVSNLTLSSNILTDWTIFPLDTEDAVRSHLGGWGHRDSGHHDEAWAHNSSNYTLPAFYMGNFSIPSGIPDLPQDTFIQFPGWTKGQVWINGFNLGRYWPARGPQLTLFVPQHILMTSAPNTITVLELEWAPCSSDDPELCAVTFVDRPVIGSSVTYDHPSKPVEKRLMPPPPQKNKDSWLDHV

[8] = test system: T4, Beta-galactosidase (Homo sapiens), P16278 [R201C]; test: Chaperone activity at beta-galactosidase R201C mutant isolated from human patient fibroblasts assessed as increase in enzyme activity at 1 uM using 4-nitrophenyl beta-D-galactopyranoside as substrate relative to untreated control
T4 sequence (whole entry): T3 sequence (P16278 whole entry) with R201C

[9] = test system: T4, Beta-galactosidase (Homo sapiens), P16278 [R201C]; test: Chaperone activity at beta-galactosidase R201C mutant isolated from human patient fibroblasts assessed as increase in enzyme activity at 0.05 uM using 4-nitrophenyl beta-D-galactopyranoside as substrate relative to untreated control
[10] = test system: T4, Beta-galactosidase (Homo sapiens), P16278 [R201C]; test: Chaperone activity at beta-galactosidase R201C mutant isolated from human patient fibroblasts assessed as increase in enzyme activity at 0.2 uM using 4-nitrophenyl beta-D-galactopyranoside as substrate relative to untreated control
[11] = test system: T4, Beta-galactosidase (Homo sapiens), P16278 [R201C]; test: Inhibition of beta-galactosidase R201C mutant isolated from human patient fibroblasts at 1 uM using 4-nitrophenyl beta-D-galactopyranoside as substrat
[12] = test system: T4, Beta-galactosidase (Homo sapiens), P16278 [R201C]; test: Chaperone activity at beta-galactosidase R201C mutant isolated from human patient fibroblasts assessed as increase increase in thermal stability at 0.2 uM at 48 degC by thermal stability assay
[13] = test system: T4, Beta-galactosidase (Homo sapiens), P16278 [R201C]; test: Chaperone activity at beta-galactosidase R201C mutant isolated from human patient fibroblasts assessed as increase in enzyme activity at 0.1 uM using 4-nitrophenyl beta-D-galactopyranoside as substrate relative to untreated control
[14] = test system: T4, Beta-galactosidase (Homo sapiens), P16278 [R201C]; test: Chaperone activity at beta-galactosidase R201C mutant isolated from human patient fibroblasts assessed as increase in enzyme activity at 10 uM using 4-nitrophenyl beta-D-galactopyranoside as substrate relative to untreated control

Ki [1] [µM] | Ki (Beta-galactosidase [3]) [µM] | Ki [4] [µM] | Ki [5] [µM] | Ki [6] [µM] | Ki (Beta-galactosidase [7]) [µM] | Activity [8] | fold change (FC) [9] | fold change (FC) [10] | inhibition [11] | Activity [12] | fold change (FC) [13] | fold change (FC) [8] | fold change (FC) [14] | SMILES | Ki [2] [µM]
0.0012 | 0.0053 | 238 | 0.019 | > 2000 | 0.29 | – | – | – | – | – | 4 | 6 | 7.4 | CN(C)c1cccc2c(S(=O)(=O)NCCCCCCN[C@H]3[C@H](O)[C@@H](O)[C@@H](O)[C@H]3CO)cccc12 | 0.01
0.0028 | – | > 2000 | 0.001 | > 2000 | – | – | – | – | – | – | – | – | – | CN(C)c1cccc2c(S(=O)(=O)NCCCCCCN(C)[C@H]3[C@H](O)[C@@H](O)[C@@H](O)[C@H]3CO)cccc12 | 0.016

Further lines, the molecule ahead of its results:

SMILES | Ki [1] [µM] | Ki (Beta-galactosidase [3]) [µM] | Ki [4] [µM] | Ki [5] [µM] | Ki [6] [µM] | Ki (Beta-galactosidase [7]) [µM] | Activity [8] | fold change (FC) [9] | fold change (FC) [10] | inhibition [11] | Activity [12] | fold change (FC) [13] | fold change (FC) [8] | fold change (FC) [14] | Ki [2] [µM]
N#CCCCN[C@H]1[C@H](O)[C@@H](O)[C@@H](O)[C@H]1CO | 0.0024 | 0.13 | > 2000 | 10.3 | > 2000 | – | – | – | – | – | – | – | – | – | 0.068
N#CCCCCCN[C@H]1[C@H](O)[C@@H](O)[C@@H](O)[C@H]1CO | 0.006 | 0.11 | > 2000 | 10.7 | > 2000 | – | – | – | – | – | – | – | – | – | 0.13
NCCCCCCN[C@H]1[C@H](O)[C@@H](O)[C@@H](O)[C@H]1CO | 0.096 | 31 | > 2000 | 54.2 | > 2000 | 9.2 | inactive | 4 | 5 | Active | Active | – | – | – | 16
OC[C@@H]1[C@H](O)[C@H](O)[C@@H](O)[C@@H]1N1CCCC1 | 1.8 | – | > 2000 | 123 | > 2000 | – | – | – | – | – | – | – | – | – | 33
CCCCCCCCN[C@@H]1C=C(CO)[C@H](O)[C@H](O)[C@H]1O | 7.7 | – | > 2000 | 83 | > 2000 | 0.51 | – | – | – | – | – | – | – | – | 2.8
